US9833497B2, “Human originated EGF domain proteins and use of the same” (CHENGDU SOURCEBIO LIMITED-LIABILITY COMPANY, priority 2013, dated 2017)

Experiments:
Type in all cases: cell-based
[1] = tested on: Klebsiella pneumonia; test: MIC against Gram-negative bacteria: Klebsiella pneumonia; details: for MIC (μg/mL) K. pneumonia / MIC: 10 h cultivation at 37° C., K. pneumonia
Summary of the method: (§1)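 Growth inhibition by human EGF domain proteins was scored in LB liquid culture seeded at 5×10^5 CFU/mL. Protein was applied as a two-fold dilution series in triplicate, with shaking incubation at 37° C; MIC is the lowest concentration giving no growth.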

[2] = tested on: Citrobacter diversus; test: MIC against Gram-negative bacteria: Citrobacter diversus; details: for MIC (μg/mL) C. diversus / MIC: 10 h cultivation at 37° C., C. diversus
Summary of the method: as §1

[3] = tested on: E. coli BL21; test: MIC against Gram-negative bacteria: E. coli BL21; details: for MIC (μg/mL) E. coli BL21 / MIC: 10 h cultivation at 37° C.
Summary of the method: as §1

[4] = tested on: Proteus vulgaris; test: MIC against Gram-negative bacteria: Proteus vulgaris; details: for MIC (μg/mL) P. vulgaris / MIC: 10 h cultivation at 37° C., P. vulgaris
Summary of the method: as §1

[5] = tested on: Proteus mirabilis; test: MIC against Gram-negative bacteria: Proteus mirabilis; details: for MIC (μg/mL) P. mirabilis / MIC: 10 h cultivation at 37° C., P. mirabilis
Summary of the method: as §1

[6] = tested on: Aeromonas hydrophila; test: MIC against Gram-negative bacteria: Aeromonas hydrophila; details: for MIC (μg/mL) A. hydrophila / MIC: 10 h cultivation at 37° C., A. hydrophila
Summary of the method: as §1

[7] = tested on: Serratia marcescens; test: MIC against Gram-negative bacteria: Serratia marcescens; details: for MIC (μg/mL) S. marcescens / MIC: 10 h cultivation at 37° C., S. marcescens
Summary of the method: as §1

[8] = tested on: Moraxella catarrhalis; test: MIC against Gram-negative bacteria: Moraxella catarrhalis; details: for MIC (μg/mL) M. catarrhalis / MIC: 10 h cultivation at 37° C., M. catarrhalis
Summary of the method: as §1

[9] = tested on: Pseudomonas aeruginosa; test: MIC against Gram-negative bacteria: Pseudomonas aeruginosa; details: for MIC (μg/mL) P. aeruginosa / MIC: 10 h cultivation at 37° C., P. aeruginosa
Summary of the method: as §1

[10] = tested on: E. coli DH5α; test: Antibacterial activity: MIC and growth curve against E. coli DH5α in 96-well plate; details: minimal inhibitory concentration against E. coli DH5α; 96-well plate, 5×10^5 CFU/mL, 37° C., judged after 8 h
Summary of the method: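 Log-phase bacteria (OD600 ~0.5) resuspended in LB at 5×10^5 CFU/mL, exposed to recombinant protein at 50, 25, 12.5 μg/mL final in triplicate, 37 °C shaking at 175 rpm. OD600 read every 30 min; MIC is lowest concentration showing no growth.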

[11] = tested on: Enterobacter cloacae; test: MIC against Gram-negative bacteria: Enterobacter cloacae; details: for MIC (μg/mL) E. cloacae / MIC: 10 h cultivation at 37° C., E. cloacae
Summary of the method: as §1

[12] = 96-well plate, 5×10^5 CFU/mL, 37° C., 10 h

Substance	MIC (μg/mL) K. pneumonia ([1]; 5×10^5 CFU/mL) [µg/mL]	MIC (μg/mL) C. diversus ([2]; 5×10^5 CFU/mL) [µg/mL]	MIC (μg/mL) E. coli BL21 ([3]; E. coli BL21, 5×10^5 CFU/mL) [µg/mL]	MIC (μg/mL) P. vulgaris ([4]; 5×10^5 CFU/mL) [µg/mL]	MIC (μg/mL) P. mirabilis ([5]; 5×10^5 CFU/mL) [µg/mL]	MIC (μg/mL) A. hydrophila ([6]; 5×10^5 CFU/mL) [µg/mL]	MIC (μg/mL) S. marcescens ([7]; 5×10^5 CFU/mL) [µg/mL]	MIC (μg/mL) M. catarrhalis ([8]; 5×10^5 CFU/mL) [µg/mL]	MIC (μg/mL) P. aeruginosa ([9]; 5×10^5 CFU/mL) [µg/mL]	MIC [10] [µg/mL]	MIC (μg/mL) E. cloacae ([11]; 5×10^5 CFU/mL) [µg/mL]	further results
PRT159 (EYDACQRKPCQNNASCIDANEKQDGSNFTCVCLPGYTGELCQ; listed as Homo sapiens)	12.5	12.5	50	12.5	25	12.5	25	12.5	25	25	12.5	
PRT659 (DADECVIFGPGLCPNGRCLNTVPGYVCLCNPGFHYDASHKKCE; listed as Homo sapiens)										25		MIC K. pneumonia [1, 12]: 12.5 µg/mL; MIC C. diversus [2, 12]: 25 µg/mL; MIC E. coli BL21 [3, 12]: 50 µg/mL; MIC P. vulgaris [4, 12]: 25 µg/mL; MIC P. mirabilis [5, 12]: 12.5 µg/mL; MIC A. hydrophila [6, 12]: 50 µg/mL; MIC S. marcescens [7, 12]: 50 µg/mL; MIC M. catarrhalis [8, 12]: 25 µg/mL; MIC P. aeruginosa [9, 12]: 25 µg/mL; MIC E. cloacae [11, 12]: 25 µg/mL
PRT748 (YTASCQPWSCSGHGECVEIINNYTCNCDVGYYGPQCQ; listed as Homo sapiens)	25	50	25	12.5	50	12.5	25	12.5	12.5	50	50	
PRT917 (DVNECGQKPGLCRHGGTCHNEVGSYRCVCRATHTGPNCE; listed as Homo sapiens)										25		MIC [1]: 25 µg/mL; MIC [2]: 12.5 µg/mL; MIC ([3]; E. coli BL21): 50 µg/mL; MIC [4]: 25 µg/mL; MIC [5]: 25 µg/mL; MIC [6]: 25 µg/mL; MIC [7]: 25 µg/mL; MIC [8]: 50 µg/mL; MIC [9]: 12.5 µg/mL; MIC [11]: 50 µg/mL
PRT1015 (DVNECFQDPGPCPKGTSCHNTLGSFQCLCPVGQEGPRCE; listed as Homo sapiens)										12.5		MIC [1]: 50 µg/mL; MIC [2]: 50 µg/mL; MIC ([3]; E. coli BL21): 50 µg/mL; MIC [4]: 12.5 µg/mL; MIC [5]: 50 µg/mL; MIC [6]: 25 µg/mL; MIC [7]: 50 µg/mL; MIC [8]: 12.5 µg/mL; MIC [9]: 12.5 µg/mL; MIC [11]: 12.5 µg/mL
PRT184 (DLNYCTHHSPCKNGATCSNSGQRSYTCTCRPGYTGVDCE; listed as Homo sapiens)	50	25	12.5	12.5	25	12.5	25	50	25	25	25	
PRT1292 (NVDDCEDNDCENNSTCVDGINNYTCLCPPEYTGELCE; listed as Homo sapiens)										12.5		MIC against K. pneumonia ([1]; Klebsiella pneumonia, 96-well plate, 5×10^5 CFU/mL, 37° C., 10 h): 12.5 µg/mL; MIC against C. diversus ([2]; Citrobacter diversus, 96-well plate, 5×10^5 CFU/mL, 37° C., 10 h): 12.5 µg/mL; MIC against E. coli BL21 ([3]; E. coli BL21, 96-well plate, 5×10^5 CFU/mL, 37° C., 10 h): 12.5 µg/mL; MIC against P. vulgaris ([4]; Proteus vulgaris, 96-well plate, 5×10^5 CFU/mL, 37° C., 10 h): 50 µg/mL; MIC against P. mirabilis ([5]; Proteus mirabilis, 96-well plate, 5×10^5 CFU/mL, 37° C., 10 h): 12.5 µg/mL; MIC against A. hydrophila ([6]; Aeromonas hydrophila, 96-well plate, 5×10^5 CFU/mL, 37° C., 10 h): 25 µg/mL; MIC against S. marcescens ([7]; Serratia marcescens, 96-well plate, 5×10^5 CFU/mL, 37° C., 10 h): 12.5 µg/mL; MIC against M. catarrhalis ([8]; Moraxella catarrhalis, 96-well plate, 5×10^5 CFU/mL, 37° C., 10 h): 50 µg/mL; MIC against P. aeruginosa ([9]; Pseudomonas aeruginosa, 96-well plate, 5×10^5 CFU/mL, 37° C., 10 h): 12.5 µg/mL; MIC against E. cloacae ([11]; Enterobacter cloacae, 96-well plate, 5×10^5 CFU/mL, 37° C., 10 h): 50 µg/mL
PRT236 (TKTSCAKCPPNASCVNNTHCTCNHGYTSGSGQKLFTFPLETCN; listed as Homo sapiens)	12.5	12.5	12.5	25	12.5	25	12.5	25	100	12.5	12.5	
PRT949 (FVDVCPQMPCLNGGTCAVASNMPDGFICRCPPGFSGARCQ; listed as Homo sapiens)										12.5		MIC [1]: 25 µg/mL; MIC [2]: 12.5 µg/mL; MIC ([3]; E. coli BL21): 25 µg/mL; MIC [4]: 12.5 µg/mL; MIC [5]: 50 µg/mL; MIC [6]: 50 µg/mL; MIC [7]: 25 µg/mL; MIC [8]: 25 µg/mL; MIC [9]: 50 µg/mL; MIC [11]: 12.5 µg/mL
PRT882 (SAKQCDSYPCKNNAVCKDGWNRFICDCTGTGYWGRTCE; listed as Homo sapiens)	12.5	50	12.5	12.5	50	100	50	12.5	25	25	25	
PRT757 (RINYCALNKPGCEHECVNMEESYYCRCHRGYTLDPNGKTCS; listed as Homo sapiens)	12.5	12.5	12.5	25	12.5	50	50	50	50	50	25	
